Measured values taken from paper PMC9250534, “Synthesis and direct assay of large macrocycle diversities by combinatorial late-stage modification at picomole scale” (Nature Communications, 2022).

target: MDM2 (Homo sapiens, UniProt Q00987); assay: MDM2 binding screen of Libraries 3 and 4: displacement of fluorescent probe F-M8 at 750 nM macrocycle; conditions: Panel b, Library 3: 63 scaffolds combinatorially acylated with 15 carboxylic acids at 30 picomole scale; displacement of fluorescent peptide probe; macrocycle 750 nM
Sequence (Q00987 whole entry): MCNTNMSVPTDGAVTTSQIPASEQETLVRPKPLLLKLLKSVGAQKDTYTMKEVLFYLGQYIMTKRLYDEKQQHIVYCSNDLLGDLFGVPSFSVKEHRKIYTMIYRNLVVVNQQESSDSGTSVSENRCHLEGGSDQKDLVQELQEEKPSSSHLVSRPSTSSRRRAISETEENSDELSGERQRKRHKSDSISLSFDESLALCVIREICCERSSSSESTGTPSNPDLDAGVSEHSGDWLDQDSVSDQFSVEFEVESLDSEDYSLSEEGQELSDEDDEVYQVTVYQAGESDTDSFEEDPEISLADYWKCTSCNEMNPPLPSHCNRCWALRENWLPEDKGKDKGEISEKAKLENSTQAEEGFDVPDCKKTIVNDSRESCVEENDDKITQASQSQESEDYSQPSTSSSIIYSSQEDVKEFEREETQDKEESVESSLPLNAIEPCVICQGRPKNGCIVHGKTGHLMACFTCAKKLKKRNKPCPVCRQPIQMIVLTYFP
Method in brief: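 Cyclic peptide scaffolds were acylated in DMSO with carboxylic acids (20 equiv.), HBTU and DABCO for 6 h at room temperature. Reactions were quenched overnight in 100 mM Tris-Cl pH 7.4, 0.01% Tween20. The fluorescein conjugate was also competed with nutlin-3a.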

Row | fraction of fluorescent probe displaced | SMILES
1 | 0.021 | Cn1cc(C[C@@H]2NC(=O)[C@@H](CNC(=O)/C=C/c3ccc(Cl)cc3)NC(=O)[C@@H]3CN(CCO3)C(=O)CCSSCCNC2=O)c2ccccc21 [X-Cop-D-Dap-Me-Trp + Acid 108]
2 | 0.028 | Cn1cc(CC2NC(=O)C(CNC(=O)C=Cc3ccc(OCc4ccccc4)cc3)NC(=O)C3CN(CCO3)C(=O)CCSSCCNC2=O)c2ccccc21 [X-Cop-D-Dap-Me-Trp + Acid 110]
3 | -0.019 | CN1C(=O)[C@@H](CNC(=O)c2ccc(Cl)s2)NC(=O)[C@@H]2CN(CCO2)C(=O)CCSSCCNC(=O)[C@@H]1Cc1c[nH]c2ccccc12 [X-Cop-D-Dap-NMe-Trp + Acid 14]
4 | -0.019 | CN1C(=O)[C@@H](CNC(=O)c2ccc(Cl)cc2)NC(=O)[C@@H]2CN(CCO2)C(=O)CCSSCCNC(=O)[C@@H]1Cc1c[nH]c2ccccc12 [X-Cop-D-Dap-NMe-Trp + Acid 25]
5 | 0.008 | CN1C(=O)[C@@H](CNC(=O)/C=C/c2ccc(Cl)cc2)NC(=O)[C@@H]2CN(CCO2)C(=O)CCSSCCNC(=O)[C@@H]1Cc1c[nH]c2ccccc12 [X-Cop-D-Dap-NMe-Trp + Acid 108]
6 | 0.015 | CN1C(=O)[C@@H](CNC(=O)/C=C/c2ccc(OCc3ccccc3)cc2)NC(=O)[C@@H]2CN(CCO2)C(=O)CCSSCCNC(=O)[C@@H]1Cc1c[nH]c2ccccc12 [X-Cop-D-Dap-NMe-Trp + Acid 110]
7 | 0.00133 | CN1C(=O)C(CNC(=O)c2cccc(Oc3ccccc3)c2)NC(=O)C2CN(CCO2)C(=O)CCSSCCNC(=O)C1Cc1c[nH]c2ccccc12 [X-Cop-D-Dap-NMe-Trp + Acid 111]
8 | 0.035 | CN1C(=O)[C@@H](CNC(=O)/C=C/c2ccc3ccccc3c2)NC(=O)[C@@H]2CN(CCO2)C(=O)CCSSCCNC(=O)[C@@H]1Cc1c[nH]c2ccccc12 [X-Cop-D-Dap-NMe-Trp + Acid 112]
9 | 0.00133 | O=C(NC[C@H]1NC(=O)[C@@H]2CN(CCO2)C(=O)CCSSCCNC(=O)[C@H](Cc2c[nH]c3ccccc23)NC1=O)c1ccc(Cl)cc1 [X-Cop-D-Dap-Trp + Acid 25]
10 | 0.021 | O=C(C=Cc1ccc(Cl)cc1)NCC1NC(=O)C2CN(CCO2)C(=O)CCSSCCNC(=O)C(Cc2c[nH]c3ccccc23)NC1=O [X-Cop-D-Dap-Trp + Acid 108]
11 | -0.00533 | O=C(/C=C/c1ccc(OCc2ccccc2)cc1)NC[C@H]1NC(=O)[C@@H]2CN(CCO2)C(=O)CCSSCCNC(=O)[C@H](Cc2c[nH]c3ccccc23)NC1=O [X-Cop-D-Dap-Trp + Acid 110]
12 | 0.015 | O=C(NC[C@H]1NC(=O)[C@@H]2CN(CCO2)C(=O)CCSSCCNC(=O)[C@H](Cc2c[nH]c3ccccc23)NC1=O)c1cccc(Oc2ccccc2)c1 [X-Cop-D-Dap-Trp + Acid 111]
13 | 0.008 | O=C(NC[C@H]1NC(=O)[C@@H]2CN(CCO2)C(=O)CCSSCCNC(=O)[C@H](Cc2c[nH]c3ccccc23)NC1=O)C1COc2ccccc2O1 (stereo partly drawn) [X-Cop-D-Dap-Trp + Acid 115]
14 | 0.008 | O=C(NC[C@@H]1NC(=O)[C@@H]2CN(CCO2)C(=O)CCSSCCNC(=O)[C@H](Cc2cccc3ccccc23)NC1=O)c1ccc(Cl)s1 [X-Cop-Dap-1-NaI + Acid 14]
15 | -0.012 | O=C(NCC1NC(=O)C2CN(CCO2)C(=O)CCSSCCNC(=O)C(Cc2cccc3ccccc23)NC1=O)c1ccc(Cl)cc1 (stereo not drawn) [X-Cop-Dap-1-NaI + Acid 25]
16 | 0.021 | O=C(/C=C/c1ccc2ccccc2c1)NC[C@@H]1NC(=O)[C@@H]2CN(CCO2)C(=O)CCSSCCNC(=O)[C@H](Cc2cccc3ccccc23)NC1=O [X-Cop-Dap-1-NaI + Acid 112]
17 | 0.021 | O=C(CCS(=O)(=O)c1ccccc1)NC[C@@H]1NC(=O)[C@@H]2CN(CCO2)C(=O)CCSSCCNC(=O)[C@H](Cc2cccc3ccccc23)NC1=O [X-Cop-Dap-1-NaI + Acid 114]
18 | 0.041 | O=C(NC[C@@H]1NC(=O)[C@@H]2CN(CCO2)C(=O)CCSSCCNC(=O)[C@H](Cc2ccc3ccccc3c2)NC1=O)c1ccc(Cl)cc1 [X-Cop-Dap-2-Nal + Acid 25]

Row | fraction of fluorescent probe displaced | SMILES
19 | 0.035 | O=C(/C=C/c1ccc(OCc2ccccc2)cc1)NC[C@@H]1NC(=O)[C@@H]2CN(CCO2)C(=O)CCSSCCNC(=O)[C@H](Cc2ccc3ccccc3c2)NC1=O [X-Cop-Dap-2-Nal + Acid 110]
20 | 0.008 | O=C(NCC1NC(=O)C2CN(CCO2)C(=O)CCSSCCNC(=O)C(Cc2ccc3ccccc3c2)NC1=O)c1cccc(Oc2ccccc2)c1 (stereo not drawn) [X-Cop-Dap-2-Nal + Acid 111]
21 | -0.00533 | O=C(CCS(=O)(=O)c1ccccc1)NC[C@@H]1NC(=O)[C@@H]2CN(CCO2)C(=O)CCSSCCNC(=O)[C@H](Cc2ccc3ccccc3c2)NC1=O [X-Cop-Dap-2-Nal + Acid 114]
22 | 0.128 | O=C(NC[C@@H]1NC(=O)[C@@H]2CN(CCO2)C(=O)CCSSCCNC(=O)[C@H](Cc2c[nH]c3cc(Cl)ccc23)NC1=O)c1ccc(Cl)s1 [X-Cop-Dap-Cl-Trp + Acid 14]
23 | 0.088 | O=C(NCC1NC(=O)C2CN(CCO2)C(=O)CCSSCCNC(=O)C(Cc2c[nH]c3cc(Cl)ccc23)NC1=O)c1ccc(Cl)cc1 (stereo not drawn) [X-Cop-Dap-Cl-Trp + Acid 25]
24 | 0.284 | O=C(C=Cc1ccncc1)NCC1NC(=O)C2CN(CCO2)C(=O)CCSSCCNC(=O)C(Cc2c[nH]c3cc(Cl)ccc23)NC1=O (stereo not drawn) [X-Cop-Dap-Cl-Trp + Acid 106]
25 | 0.102 | O=C(NC[C@@H]1NC(=O)[C@@H]2CN(CCO2)C(=O)CCSSCCNC(=O)[C@H](Cc2c[nH]c3cc(Cl)ccc23)NC1=O)c1ccc2ccccc2c1 [X-Cop-Dap-Cl-Trp + Acid 107]
26 | 0.075 | O=C(C=Cc1ccc(Cl)cc1)NCC1NC(=O)C2CN(CCO2)C(=O)CCSSCCNC(=O)C(Cc2c[nH]c3cc(Cl)ccc23)NC1=O (stereo not drawn) [X-Cop-Dap-Cl-Trp + Acid 108]
27 | 0.021 | O=C(/C=C/c1ccc(OCc2ccccc2)cc1)NC[C@@H]1NC(=O)[C@@H]2CN(CCO2)C(=O)CCSSCCNC(=O)[C@H](Cc2c[nH]c3cc(Cl)ccc23)NC1=O [X-Cop-Dap-Cl-Trp + Acid 110]
28 | -0.039 | O=C(CCS(=O)(=O)c1ccccc1)NC[C@@H]1NC(=O)[C@@H]2CN(CCO2)C(=O)CCSSCCNC(=O)[C@H](Cc2c[nH]c3cc(Cl)ccc23)NC1=O [X-Cop-Dap-Cl-Trp + Acid 114]
29 | -0.012 | O=C(NC[C@@H]1NC(=O)[C@@H]2CN(CCO2)C(=O)CCSSCCNC(=O)[C@@H](Cc2c[nH]c3ccccc23)NC1=O)c1ccc(Cl)cc1 [X-Cop-Dap-D-Trp + Acid 25]
30 | 0.028 | O=C(/C=C/c1ccc2ccccc2c1)NC[C@@H]1NC(=O)[C@@H]2CN(CCO2)C(=O)CCSSCCNC(=O)[C@@H](Cc2c[nH]c3ccccc23)NC1=O [X-Cop-Dap-D-Trp + Acid 112]
31 | 0.021 | O=C(CCS(=O)(=O)c1ccccc1)NC[C@@H]1NC(=O)[C@@H]2CN(CCO2)C(=O)CCSSCCNC(=O)[C@@H](Cc2c[nH]c3ccccc23)NC1=O [X-Cop-Dap-D-Trp + Acid 114]
32 | 0.008 | O=C(NC[C@@H]1NC(=O)[C@@H]2CN(CCO2)C(=O)CCSSCCNC(=O)[C@@H](Cc2c[nH]c3ccccc23)NC1=O)C1COc2ccccc2O1 (stereo partly drawn) [X-Cop-Dap-D-Trp + Acid 115]
33 | 0.00133 | Cn1cc(C[C@@H]2NC(=O)[C@H](CNC(=O)c3ccc(Cl)s3)NC(=O)[C@@H]3CN(CCO3)C(=O)CCSSCCNC2=O)c2ccccc21 [X-Cop-Dap-Me-Trp + Acid 14]
34 | 0.015 | Cn1cc(C[C@@H]2NC(=O)[C@H](CNC(=O)c3ccc(Cl)cc3)NC(=O)[C@@H]3CN(CCO3)C(=O)CCSSCCNC2=O)c2ccccc21 [X-Cop-Dap-Me-Trp + Acid 25]
35 | 0.015 | Cn1cc(C[C@@H]2NC(=O)[C@H](CNC(=O)C3COc4ccccc4O3)NC(=O)[C@@H]3CN(CCO3)C(=O)CCSSCCNC2=O)c2ccccc21 (stereo partly drawn) [X-Cop-Dap-Me-Trp + Acid 115]
36 | 0.028 | CN1C(=O)[C@H](CNC(=O)c2ccc(Cl)s2)NC(=O)[C@@H]2CN(CCO2)C(=O)CCSSCCNC(=O)[C@@H]1Cc1c[nH]c2ccccc12 [X-Cop-Dap-NMe-Trp + Acid 14]

same assay, conditions: Panel c, Library 4: best nine scaffolds and 15 additional carboxylic acids; displacement of fluorescent probe

Row | fraction of fluorescent probe displaced | SMILES
37 | 0.175 | CCOc1ccc(/C=C/C(=O)NC[C@@H]2NC(=O)[C@@H]3CN(CCO3)C(=O)CCSSCCNC(=O)[C@H](Cc3c[nH]c4cc(Cl)ccc34)NC2=O)cc1 [X-Cop-Dap-Cl-Trp + Acid 117]
38 | 0.126 | O=C(/C=C/c1ccc(Cl)c(Cl)c1)NC[C@@H]1NC(=O)[C@@H]2CN(CCO2)C(=O)CCSSCCNC(=O)[C@H](Cc2c[nH]c3cc(Cl)ccc23)NC1=O [X-Cop-Dap-Cl-Trp + Acid 119]
39 | 0.012 | C/C(=C\c1ccccc1)C(=O)NC[C@@H]1NC(=O)[C@@H]2CN(CCO2)C(=O)CCSSCCNC(=O)[C@H](Cc2c[nH]c3cc(Cl)ccc23)NC1=O [X-Cop-Dap-Cl-Trp + Acid 123]
40 | 0.085 | CC(C)c1ccc(/C=C/C(=O)NC[C@@H]2NC(=O)[C@@H]3CN(CCO3)C(=O)CCSSCCNC(=O)[C@H](Cc3c[nH]c4cc(Cl)ccc34)NC2=O)cc1 [X-Cop-Dap-Cl-Trp + Acid 127]
41 | 0.052 | CCOc1ccc(C=CC(=O)NCC2NC(=O)C3CN(CCO3)C(=O)CCSSCCNC(=O)C(Cc3cn(C)c4ccccc34)NC2=O)cc1 (stereo not drawn) [X-Cop-Dap-Me-Trp + Acid 117]
42 | 0.028 | CCCOc1ccc(C=CC(=O)NCC2NC(=O)C3CN(CCO3)C(=O)CCSSCCNC(=O)C(Cc3cn(C)c4ccccc34)NC2=O)cc1 (stereo not drawn) [X-Cop-Dap-Me-Trp + Acid 118]
43 | -0.037 | CC(=Cc1ccccc1)C(=O)NCC1NC(=O)C2CN(CCO2)C(=O)CCSSCCNC(=O)C(Cc2cn(C)c3ccccc23)NC1=O (stereo not drawn) [X-Cop-Dap-Me-Trp + Acid 123]
